In PMC6292453 (Biochemical Journal, 2018):

Biological target: T1, P450ZoGa (CYP236A2, WP_013995999) (Zobellia galactanivorans, UniProt G0L713)
T1 sequence (G0L713 1-387): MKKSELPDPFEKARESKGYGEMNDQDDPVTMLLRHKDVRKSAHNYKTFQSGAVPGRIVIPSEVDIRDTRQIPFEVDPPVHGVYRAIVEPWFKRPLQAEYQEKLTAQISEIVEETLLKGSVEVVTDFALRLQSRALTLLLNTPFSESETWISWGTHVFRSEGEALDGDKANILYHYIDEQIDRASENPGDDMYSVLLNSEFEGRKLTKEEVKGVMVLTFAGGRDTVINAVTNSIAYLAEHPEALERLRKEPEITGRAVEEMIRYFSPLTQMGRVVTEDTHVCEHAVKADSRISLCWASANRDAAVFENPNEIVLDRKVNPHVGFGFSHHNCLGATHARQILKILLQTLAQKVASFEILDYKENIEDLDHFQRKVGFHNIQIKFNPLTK
Test: crystal structure of soaked complex
Assay type: binding

SMILES: COC[C@H]1OC(O)[C@H](O)[C@@H](O)[C@H]1O (stereo partly drawn) [G6Me, 6-O-methyl-D-galactose]
- Kd: 980 ± 120 µM
